These results are taken from US20190076456A1, “COMPOSITIONS AND METHODS FOR LIVER DISEASES” (priority 2017, published 2019).

Where two headings read alike, the source gives them in different places.

One data set concerns alcohol hangover. In words: Nasal spray administration to a human subject with alcohol hangover. In kind it is in vivo. As to conditions: 50 mg NAD+ per administration, three times in a day. The procedure: A subject, who is […] and suffers from alcohol hangover was administered by nasal spray a composition of invention (with a dosage of 50 mg NAD+ per administration) three times in a day.

The conditions of data set [1]: cited from earlier work.

For the compound `NC(=O)c1ccc[n+]([C@@H]2O[C@H](COP(=O)([O-])OP(=O)(O)OC[C@H]3O[C@@H](n4cnc5c(N)ncnc54)[C@H](O)[C@@H]3O)[C@@H](O)[C@H]2O)c1` [NAD+, nicotinamide adenine dinucleotide], the “symptoms of alcohol hangover” value with alcohol hangover is given as “Significant improvement”. Besides, the stability of solution entry is recorded as “stable for about a week” in data set [1] (4° C. and neutral pH); “decompose rapidly” in data set [1] (in acids or alkalis).
